From patent publication US6472418B1, “Non-peptide NK1 receptors antagonists” (Warner-Lambert Company, priority 1998, dated 2002) come the findings set out here.

SMILES strings stand for the structures. Some results are limits rather than exact numbers.

In one test the target is T1, Human NK1 Receptor (Homo sapiens, UniProt P25103).
T1 construct: endogenous in cells; host or cells: Human lymphoma IM9 cells (whole cells)
T1 sequence (P25103 whole entry): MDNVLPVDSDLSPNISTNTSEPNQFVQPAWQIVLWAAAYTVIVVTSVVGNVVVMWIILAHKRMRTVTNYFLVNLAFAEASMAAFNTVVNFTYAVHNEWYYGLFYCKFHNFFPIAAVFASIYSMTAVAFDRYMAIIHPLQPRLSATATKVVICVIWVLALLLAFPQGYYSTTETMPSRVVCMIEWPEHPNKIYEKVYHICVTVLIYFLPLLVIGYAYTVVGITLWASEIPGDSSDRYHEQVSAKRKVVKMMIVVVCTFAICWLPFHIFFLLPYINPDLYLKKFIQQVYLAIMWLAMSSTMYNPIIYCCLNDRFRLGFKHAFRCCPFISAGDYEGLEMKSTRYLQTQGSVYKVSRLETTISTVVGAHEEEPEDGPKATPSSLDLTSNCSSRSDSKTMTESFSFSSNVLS
The test can be described thus: In Vitro Human NK1 Receptor Binding Assay ([125I]Bolton-Hunter substance P displacement, IM9 cells). The following applies: Human lymphoma IM9 cells, [125I]Bolton-Hunter substance P; Table 3, array-synthesis products; read-out: IC50 (nM) hNK1. The method in brief:
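Test compounds competed with 0.05-0.1 nM [125I]Bolton-Hunter substance P for binding to intact IM9 cells over 50 min at 21° C, pH 7.4 buffer with MnCl2 and peptidase inhibitors. […] [Sar9, Met(O2)11] substance P gave non-specific binding. Bound counts were measured after filtration and fitted iteratively.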
For the compound `CCC(NC(=O)C(Cc1c[nH]c2ccccc12)NCc1cc2ccccc2o1)c1ccccc1` (stereo not drawn) [Example 259, 2-[(Benzofuran-2-ylmethyl)-amino]-3-(1H-indol-3-yl)-N-(1-phenyl-propyl)-propionamide], the IC50 came out at 21 nM.

On to `O=C(NCCc1ccc(F)cc1)C(Cc1c[nH]c2ccccc12)NCc1cc2ccccc2o1` (stereo not drawn) [Example 284, 2-[(Benzofuran-2-ylmethyl)-amino]-N-[2-(4-fluoro-phenyl)-ethyl]-3-(1H-indol-3-yl)-propionamide], for which the IC50 came to 62 nM.

Regarding `O=C(CNC(=O)C(Cc1c[nH]c2ccccc12)NCc1cc2ccccc2o1)c1ccccc1` (stereo not drawn) [Example 237, 2-[(Benzofuran-2-ylmethyl)-amino]-3-(1H-indol-3-yl)-N-(2-oxo-2-phenyl-ethyl)-propionamide], the IC50 turned out to be 5340 nM.

Regarding `O=C(NCc1cccc(F)c1)C(Cc1c[nH]c2ccccc12)NCc1cc2ccccc2o1` (stereo not drawn) [Example 248, 2-[(Benzofuran-2-ylmethyl)-amino]-N-(3-fluoro-benzyl)-3-(1H-indol-3-yl)-propionamide], the IC50 amounted to 6 nM.

As to `CC(Cc1c[nH]c2ccccc12)NC(=O)C(Cc1c[nH]c2ccccc12)NCc1cc2ccccc2o1` (stereo not drawn) [Example 297, 2-[(Benzofuran-2-ylmethyl)-amino]-3-(1H-indol-3-yl)-N-[2-(1H-indol-3-yl)-1-methyl-ethyl]-propionamide], the IC50 is 3610 nM.

Regarding `O=C(NCc1ccc(F)c(Cl)c1)C(Cc1c[nH]c2ccccc12)NCc1cc2ccccc2o1` (stereo not drawn) [Example 229, 2-[(Benzofuran-2-ylmethyl)-amino]-N-(3-chloro-4-fluoro-benzyl)-3-(1H-indol-3-yl)-propionamide], the IC50 worked out at 33 nM.

As to `O=C(NCCc1ccccc1F)C(Cc1c[nH]c2ccccc12)NCc1cc2ccccc2o1` (stereo not drawn) [Example 274, 2-[(Benzofuran-2-ylmethyl)-amino]-N-[2-(2-fluoro-phenyl)-ethyl]-3-(1H-indol-3-yl)-propionamide], the IC50 stood at 264 nM.

As for `O=C(NC1CCc2ccccc21)C(Cc1c[nH]c2ccccc12)NCc1cc2ccccc2o1` (stereo not drawn) [Example 262, 2-[(Benzofuran-2-ylmethyl)-amino]-N-indan-1-yl-3-(1H-indol-3-yl)-propionamide], the half-maximal inhibitory concentration (IC50) was 86 nM.

`CC(NC(=O)C(Cc1c[nH]c2ccccc12)NCc1cc2ccccc2o1)c1cccc(N(C)C)c1` (stereo not drawn) [Example 227, 2-[(Benzofuran-2-ylmethyl)-amino]-N-[1-(3-dimethylamino-phenyl)-ethyl]-3-(1H-indol-3-yl)-propionamide]: the IC50 came to 182 nM.

On to `O=C(NCc1cccc(OC(F)(F)F)c1)C(Cc1c[nH]c2ccccc12)NCc1cc2ccccc2o1` (stereo not drawn) [Example 200, 2-[(Benzofuran-2-ylmethyl)-amino]-3-(1H-indol-3-yl)-N-(3-trifluoromethoxy-benzyl)-propionamide], for which the IC50 is 355 nM.

The test is the same for the next values; noted with them: Table 4; [125I]Bolton-Hunter substance P displacement, human IM9 cells; read-out: IC50 (nM) hNK1.
Take `CC(NC(=O)C(C)(Cc1c[nH]c2ccccc12)NCc1cccs1)c1ccccc1` (stereo not drawn) [compound 357, 3-(1H-Indol-3-yl)-2-methyl-N-(1-phenyl-ethyl)-2-[(thiophen-2-ylmethyl)-amino]-propionamide]: the IC50 amounted to 548 nM.

Regarding `CC(NC(=O)C(C)(Cc1c[nH]c2ccccc12)NCc1ccco1)c1ccccc1` (stereo not drawn) [compound 314, 2-[(Furan-2-ylmethyl)-amino]-3-(1H-indol-3-yl)-2-methyl-N-(1-phenyl-ethyl)-propionamide], the IC50 worked out at 141 nM.

As to `CC(NC(=O)C(C)(Cc1c[nH]c2ccccc12)NCc1cccnc1)c1ccccc1` (stereo not drawn) [compound 320, 3-(1H-Indol-3-yl)-2-methyl-N-(1-phenyl-ethyl)-2-[(pyridin-3-ylmethyl)-amino]-propionamide], the IC50 worked out at 5970 nM.

For the compound `CC(NC(=O)C(C)(Cc1c[nH]c2ccccc12)NCc1ccccn1)c1ccccc1` (stereo not drawn) [compound 310, 3-(1H-Indol-3-yl)2-methyl-N-(1-phenyl-ethyl)-2-[(pyridin-2-ylmethyl)-amino]-propionamide], the IC50 stood at 3320 nM.

The test is the same for the next values; noted with them: Table 5; [125I]Bolton-Hunter substance P displacement, human IM9 cells; read-out: IC50 (nM) hNK1.
Consider `CC(NC(=O)C(Cc1c[nH]c2ccccc12)NCC1CSc2c([nH]c3ccccc23)C1=O)c1ccccc1` (stereo not drawn) [compound 372], for which the IC50 was greater than 10000 nM.

`CC(NC(=O)C(Cc1c[nH]c2ccccc12)NCCCc1cccc2ccccc12)c1ccccc1` (stereo not drawn) [compound 380]: the IC50 amounted to 500 nM.

With `CC(NC(=O)C(Cc1c[nH]c2ccccc12)NCc1cc(F)cc(F)c1)c1ccccc1` (stereo not drawn) [compound 399], the 50% inhibitory concentration (IC50) worked out at 140 nM.

Staying with this test, now noted: human NK1 receptor, IM9 cells, [125I]Bolton-Hunter substance P; read-out: IC50 (nM) hNK1.
For `CC(Cc1c[nH]c2ccccc12)(NCc1cc2ccccc2o1)C(=O)NCc1cccc(OC(F)(F)F)c1` (stereo not drawn) [compound 59, 2-[(Benzofuran-2-ylmethyl)-amino]-3-(1H-indol-3-yl)-2-methyl-N-(3-trifluoromethoxy-benzyl)-propionamide], the IC50 was greater than 10000 nM.

As to `CC(Cc1c[nH]c2ccccc12)(NCc1cc2ccccc2o1)C(=O)NCC1CCCO1` (stereo not drawn) [compound 138, 2-[(Benzofuran-2-ylmethyl)-amino]-3-(1H-indol-3-yl)-2-methyl-N-(tetrahydro-furan-2-ylmethyl)-propionamide], the IC50 was determined as 4870 nM.

As to `CC(Cc1c[nH]c2ccccc12)(NCc1cc2ccccc2o1)C(=O)NCC(O)c1ccccc1` (stereo not drawn) [compound 50, 2-[(Benzofuran-2-ylmethyl)-amino]-N-(2-hydroxy-2-phenyl-ethyl)-3-(1H-indol-3-yl)-2-methyl-propionamide], the IC50 turned out to be 1330 nM.

Take `CC(Cc1c[nH]c2ccccc12)(NCc1cc2ccccc2o1)C(=O)NCCN1CCC2CCCCC21` (stereo not drawn) [compound 123, 2-[(Benzofuran-2-ylmethyl)-amino]-3-(1H-indol-3-yl)-2-methyl-N-[2-(octahydro-indol-1-yl)-ethyl]-propionamide]: the IC50 was greater than 10000 nM.

In the case of `CC(NC(=O)C(C)(Cc1c[nH]c2ccccc12)NCc1cc2ccccc2o1)c1ccc([N+](=O)[O-])cc1` (stereo not drawn) [compound 124, 2-[(Benzofuran-2-ylmethyl)-amino]-3-(1H-indol-3-yl)-2-methyl-N-[1-(4-nitro-phenyl)-ethyl]-propionamide], the IC50 was determined as 92 nM.

For `CC(NC(=O)C(C)(Cc1c[nH]c2ccccc12)NCc1cc2ccccc2o1)c1ccccc1` (stereo not drawn) [compound 42, 2-[(Benzofuran-2-ylmethyl)-amino]-3-(1H-indol-3-yl)-2-methyl-N-(1-phenyl-ethyl)-propionamide], the IC50 worked out at 261 nM.

On to `CC(Cc1c[nH]c2ccccc12)(NCc1cc2ccccc2o1)C(=O)NCCN1CCNCC1` (stereo not drawn) [compound 147, 2-[(Benzofuran-2-ylmethyl)-amino]-3-(1H-indol-3-yl)-2-methyl-N-(2-piperazin-1-yl-ethyl)-propionamide], for which the IC50 is greater than 10000 nM.

On to `Cc1ccccc1CNC(=O)C(C)(Cc1c[nH]c2ccccc12)NCc1cc2ccccc2o1` (stereo not drawn) [compound 157, 2-[(Benzofuran-2-ylmethyl)-amino]-3-(1H-indol-3-yl)-2-methyl-N-(2-methyl-benzyl)-propionamide], for which the IC50 was found to be 455 nM.

As to `CC(Cc1c[nH]c2ccccc12)(NCc1cc2ccccc2o1)C(=O)NCc1cccc([N+](=O)[O-])c1` (stereo not drawn) [compound 112, 2-[(Benzofuran-2-ylmethyl)-amino]-3-(1H-indol-3-yl)-2-methyl-N-(3-nitro-benzyl)-propionamide], the IC50 was found to be 12 nM.

Regarding `CC(Cc1c[nH]c2ccccc12)(NCc1cc2ccccc2o1)C(=O)NCCCN1CCN(c2ccccn2)CC1` (stereo not drawn) [compound 87, 2-[(Benzofuran-2-ylmethyl)-amino]-3-(1H-indol-3-yl)-2-methyl-N-[3-(4-pyridin-2-yl-piperazin-1-yl)-propyl]-propionamide], the IC50 is greater than 10000 nM.
